The values that follow come from BindingDB's records for PubMed 11714872 (Astrazeneca R&D, 2001).

Assay [1] deals with T1, 5-hydroxytryptamine receptor 1A (Rattus norvegicus, UniProt P19327).
T1 sequence (P19327 whole entry): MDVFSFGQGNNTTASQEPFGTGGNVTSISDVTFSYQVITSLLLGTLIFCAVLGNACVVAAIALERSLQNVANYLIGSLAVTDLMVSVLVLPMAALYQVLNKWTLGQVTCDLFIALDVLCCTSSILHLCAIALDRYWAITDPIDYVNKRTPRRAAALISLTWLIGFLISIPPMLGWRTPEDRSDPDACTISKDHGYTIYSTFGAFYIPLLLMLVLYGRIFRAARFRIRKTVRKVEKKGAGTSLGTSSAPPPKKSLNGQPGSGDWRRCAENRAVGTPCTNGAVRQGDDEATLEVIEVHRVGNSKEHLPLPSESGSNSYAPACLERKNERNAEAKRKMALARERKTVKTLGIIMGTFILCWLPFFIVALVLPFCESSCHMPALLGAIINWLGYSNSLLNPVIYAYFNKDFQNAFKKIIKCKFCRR

In assay [2] the target is 5-hydroxytryptamine receptor 6 (Rattus norvegicus, UniProt P31388).
The target in assay [3] is T2, 5-hydroxytryptamine receptor 3A (Rattus norvegicus, UniProt P35563).
T2 sequence (P35563 whole entry): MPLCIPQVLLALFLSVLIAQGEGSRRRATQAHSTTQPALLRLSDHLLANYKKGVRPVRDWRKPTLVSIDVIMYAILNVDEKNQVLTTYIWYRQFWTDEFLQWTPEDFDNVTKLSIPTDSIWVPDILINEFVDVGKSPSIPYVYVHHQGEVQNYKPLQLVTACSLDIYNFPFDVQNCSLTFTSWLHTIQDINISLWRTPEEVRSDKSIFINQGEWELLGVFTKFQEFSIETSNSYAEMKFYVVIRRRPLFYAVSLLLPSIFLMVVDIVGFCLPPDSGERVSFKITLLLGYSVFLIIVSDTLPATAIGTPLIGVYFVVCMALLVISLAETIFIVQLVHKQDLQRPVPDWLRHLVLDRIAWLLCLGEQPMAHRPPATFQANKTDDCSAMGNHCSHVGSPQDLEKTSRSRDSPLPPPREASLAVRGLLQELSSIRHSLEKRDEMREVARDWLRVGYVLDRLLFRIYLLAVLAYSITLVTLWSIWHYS

Assay [4] deals with 5-hydroxytryptamine receptor 2A (Rattus norvegicus, UniProt P14842).
In assay [5] the target is Sodium-dependent serotonin transporter (Rattus norvegicus, UniProt P31652).
In assay [6] the target is T3, 5-hydroxytryptamine receptor 2C (Rattus norvegicus, UniProt P08909).
T3 sequence (P08909 whole entry): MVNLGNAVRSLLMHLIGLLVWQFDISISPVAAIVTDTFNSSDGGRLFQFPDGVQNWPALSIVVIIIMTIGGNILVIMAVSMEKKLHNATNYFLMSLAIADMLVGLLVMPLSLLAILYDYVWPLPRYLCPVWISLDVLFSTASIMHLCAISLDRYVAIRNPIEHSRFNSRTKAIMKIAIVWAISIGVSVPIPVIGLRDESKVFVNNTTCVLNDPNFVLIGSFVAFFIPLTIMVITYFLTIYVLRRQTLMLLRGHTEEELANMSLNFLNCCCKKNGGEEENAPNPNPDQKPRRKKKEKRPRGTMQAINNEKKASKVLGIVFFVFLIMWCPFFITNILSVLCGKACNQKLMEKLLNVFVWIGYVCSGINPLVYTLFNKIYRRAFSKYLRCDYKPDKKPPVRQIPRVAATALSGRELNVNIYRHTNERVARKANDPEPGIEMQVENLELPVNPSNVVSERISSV

Assay [7] deals with 5-hydroxytryptamine receptor 7 (Rattus norvegicus, UniProt P32305).
The target of assay [8] is 5-hydroxytryptamine receptor 1B (Bos mutus, UniProt L8IGV0).
5-hydroxytryptamine receptor 1B, sequence (L8IGV0 whole entry): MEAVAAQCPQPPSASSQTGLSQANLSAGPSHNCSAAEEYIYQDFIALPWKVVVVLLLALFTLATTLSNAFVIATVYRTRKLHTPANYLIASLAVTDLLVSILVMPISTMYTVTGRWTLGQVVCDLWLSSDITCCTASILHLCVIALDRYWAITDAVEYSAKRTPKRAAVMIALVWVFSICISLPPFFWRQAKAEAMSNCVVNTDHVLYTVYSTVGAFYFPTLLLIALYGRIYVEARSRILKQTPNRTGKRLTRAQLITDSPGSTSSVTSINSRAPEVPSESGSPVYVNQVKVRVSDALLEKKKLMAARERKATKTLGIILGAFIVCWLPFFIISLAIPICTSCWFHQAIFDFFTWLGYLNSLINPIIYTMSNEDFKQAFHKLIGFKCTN

5-hydroxytryptamine receptor 7, sequence (P32305 whole entry): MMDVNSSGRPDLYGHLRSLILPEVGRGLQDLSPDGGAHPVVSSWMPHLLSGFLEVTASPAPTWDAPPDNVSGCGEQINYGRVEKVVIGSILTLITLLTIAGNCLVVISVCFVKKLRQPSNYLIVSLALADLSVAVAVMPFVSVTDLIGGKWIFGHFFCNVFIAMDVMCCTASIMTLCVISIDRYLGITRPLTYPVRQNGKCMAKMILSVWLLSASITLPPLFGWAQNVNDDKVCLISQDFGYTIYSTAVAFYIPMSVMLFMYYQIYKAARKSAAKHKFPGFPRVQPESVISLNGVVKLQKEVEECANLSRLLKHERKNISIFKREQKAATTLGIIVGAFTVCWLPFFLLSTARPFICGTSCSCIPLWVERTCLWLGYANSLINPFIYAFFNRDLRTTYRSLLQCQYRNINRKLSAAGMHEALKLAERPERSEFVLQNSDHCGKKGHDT
5-hydroxytryptamine receptor 2A, sequence (P14842 whole entry): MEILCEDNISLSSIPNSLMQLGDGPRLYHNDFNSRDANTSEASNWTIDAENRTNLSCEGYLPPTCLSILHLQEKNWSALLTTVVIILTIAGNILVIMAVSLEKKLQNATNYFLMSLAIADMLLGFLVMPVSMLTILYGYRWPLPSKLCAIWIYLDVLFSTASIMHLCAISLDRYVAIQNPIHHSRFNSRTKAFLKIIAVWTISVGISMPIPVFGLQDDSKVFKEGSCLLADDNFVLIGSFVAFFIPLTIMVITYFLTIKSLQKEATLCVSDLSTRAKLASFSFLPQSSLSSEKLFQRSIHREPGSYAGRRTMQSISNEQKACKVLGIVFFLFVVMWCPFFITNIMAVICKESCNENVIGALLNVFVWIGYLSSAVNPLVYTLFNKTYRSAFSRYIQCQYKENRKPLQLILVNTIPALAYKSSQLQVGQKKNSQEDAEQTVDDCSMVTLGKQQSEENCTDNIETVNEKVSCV
5-hydroxytryptamine receptor 6, sequence (P31388 whole entry): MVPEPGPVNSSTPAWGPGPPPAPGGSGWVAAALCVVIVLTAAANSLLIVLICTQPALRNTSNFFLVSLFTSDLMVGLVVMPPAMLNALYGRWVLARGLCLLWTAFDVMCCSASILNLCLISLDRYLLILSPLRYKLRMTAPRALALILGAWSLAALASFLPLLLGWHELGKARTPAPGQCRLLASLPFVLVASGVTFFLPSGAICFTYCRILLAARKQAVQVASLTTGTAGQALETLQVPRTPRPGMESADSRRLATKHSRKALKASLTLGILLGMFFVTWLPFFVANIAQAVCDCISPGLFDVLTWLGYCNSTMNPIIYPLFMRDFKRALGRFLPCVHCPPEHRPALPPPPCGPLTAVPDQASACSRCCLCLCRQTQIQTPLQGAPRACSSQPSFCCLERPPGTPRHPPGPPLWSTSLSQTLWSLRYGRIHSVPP
Sodium-dependent serotonin transporter, sequence (P31652 whole entry): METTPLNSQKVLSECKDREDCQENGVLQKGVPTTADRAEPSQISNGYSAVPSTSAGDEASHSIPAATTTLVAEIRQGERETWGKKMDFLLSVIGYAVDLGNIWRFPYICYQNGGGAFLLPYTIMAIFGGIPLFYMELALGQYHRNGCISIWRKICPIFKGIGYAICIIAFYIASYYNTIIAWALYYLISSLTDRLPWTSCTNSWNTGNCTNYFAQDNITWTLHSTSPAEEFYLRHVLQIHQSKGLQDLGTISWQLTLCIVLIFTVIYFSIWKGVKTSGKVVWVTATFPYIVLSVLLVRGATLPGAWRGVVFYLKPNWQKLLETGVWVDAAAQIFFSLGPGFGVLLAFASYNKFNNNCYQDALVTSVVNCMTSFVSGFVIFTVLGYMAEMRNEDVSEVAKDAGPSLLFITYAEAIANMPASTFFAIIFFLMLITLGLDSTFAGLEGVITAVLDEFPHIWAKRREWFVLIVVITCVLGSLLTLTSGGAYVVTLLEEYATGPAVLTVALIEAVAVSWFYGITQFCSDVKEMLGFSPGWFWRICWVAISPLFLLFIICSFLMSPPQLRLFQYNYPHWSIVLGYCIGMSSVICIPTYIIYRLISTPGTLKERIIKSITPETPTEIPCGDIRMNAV

In the case of `CCCN(C(C)C)[C@H]1COc2cccc(C(N)=O)c2C1` [(R)-3-[Isopropyl(propyl)amino]-3,4-dihydro-2H-1-benzopyran-5-carboxamide], the Ki is 0.26 nM in assay [1]; more than 10000 nM in assay [2]; 500 nM in assay [3]; 1000 nM in assay [4]; more than 10000 nM in assay [5]; 500 nM in assay [6]. In assay [7], this compound displayed a Ki of 88 nM.

In the case of `CCCN(C(C)C)[C@H]1COc2cccc(C(=O)NC(C)C)c2C1` [(R)-N-Isopropyl-3-[isopropyl(propyl)amino]-3,4-dihydro-2H-1-benzopyran-5-carboxamide], the Ki in assay [1] is 4.5 nM; in assay [2], more than 10000 nM; in assay [3], 500 nM; in assay [4], more than 10000 nM; in assay [8] it was 1400 nM; in assay [6], 500 nM. In addition, the Ki in assay [7] came out at 240 nM.
